Experimental data published in patent US5185363A, “Urea based lipoxygenase inhibiting compounds” (Abbott Laboratories, priority 1991, dated 1993).

How the values were obtained:
[1] = biological target: T1, 5-Lipoxygenase from RBL-1 20,000 xg Supernatant (Rattus norvegicus, UniProt P12527); test: In vitro inhibition of 5-lipoxygenase from RBL-1 20,000 xg supernatant; format: biochemical; details: radiolabeled arachidonic acid
T1 construct: supermatant from 1.5 million homogenized RBL-1 cells; endogenous in cells; host or cells: RBL-1 cells, 20,000 x g supernatant of homogenate
T1 sequence (P12527 1-673): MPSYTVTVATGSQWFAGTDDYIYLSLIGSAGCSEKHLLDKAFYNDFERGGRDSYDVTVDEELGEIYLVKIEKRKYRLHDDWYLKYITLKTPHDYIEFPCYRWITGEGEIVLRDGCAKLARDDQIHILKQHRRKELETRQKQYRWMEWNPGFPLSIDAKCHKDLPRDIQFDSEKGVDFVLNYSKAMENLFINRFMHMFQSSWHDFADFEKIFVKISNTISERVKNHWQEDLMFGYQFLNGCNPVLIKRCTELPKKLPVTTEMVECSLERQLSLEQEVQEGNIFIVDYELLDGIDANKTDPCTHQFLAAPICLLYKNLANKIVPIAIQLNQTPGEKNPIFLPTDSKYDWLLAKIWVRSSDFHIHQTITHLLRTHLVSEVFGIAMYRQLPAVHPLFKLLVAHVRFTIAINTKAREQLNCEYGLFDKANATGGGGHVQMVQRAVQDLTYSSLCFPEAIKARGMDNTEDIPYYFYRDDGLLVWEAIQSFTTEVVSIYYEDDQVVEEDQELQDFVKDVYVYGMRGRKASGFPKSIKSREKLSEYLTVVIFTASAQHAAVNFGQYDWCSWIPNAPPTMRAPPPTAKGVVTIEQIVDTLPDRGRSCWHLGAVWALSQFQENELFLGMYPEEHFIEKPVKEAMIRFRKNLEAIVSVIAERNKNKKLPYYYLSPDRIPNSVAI
Protocol: Assays to determine 5-lipoxygenase inhibitory activity were performed in […] incubations containing the 20,000xg supermatant from 1.5 million homogenized RBL-1 cells and various concentrations of the test compound. Reactions were initiated by addition of radiolabeled arachidonic acid and terminated by acidification and ether extraction. Reaction products were separated from nonconverted substrate by thin layer chromatography and measured by liquid scintillation spectroscopy. All incubations are performed in triplicate. Inhibition of 5-lipoxygenase activity was calculated as the ratio of the amount of product formed in the presence and absence of inhibitor. […] (Dyer, R.D.; Haviv, F.; Hanel, A. M.; Bornemier, D. A.; Carter, G. W. Fed. Proc., Fed. Am. Soc. Exp. Biol. 1984, 43, 1462A).

[2] = system: leukotriene biosynthesis; test: In vivo inhibition of leukotriene biosynthesis, rat peritoneal anaphylaxis model; details: 1 h, 200 μmol/kg oral dose, gavage one hour prior to antigen challenge, read-out: Percent Inhibition
Protocol: Inhibition of the biosynthesis of leukotrienes in vivo after oral administration of compound was determined using a rat peritoneal anaphylaxis model in a similar manner as that described by Young and coworkers (Young, P. R.; Dyer, R. D.; Carter, G. W. Fed. Proc., Fed. Am. Soc. Exp. Biol. 1985, 44, 1185). In this model rats were injected intraperitoneally (ip) with rabbit antibody to bovine serum albumin (BSA) and three hours later injected ip with BSA to induce an antgen-antibody response. Rats were sacrificed 15 minutes after this challenge and the peritoneal fluids were collected and analyzed for leukotriene levels. Test compounds were administered by gavage one hour prior to the antigen challenge. Percent inhibition values were determined by comparing the treatment group to the mean of the control group.

[3] = system: 5-lipoxygenase; details: cited from earlier work

Cc1ccc(C(C)N(O)C(N)=O)cc1 (stereo not drawn) [Example 113, N-Hydroxy-N-(1-(4-methylphenyl)ethyl) urea]
IC50 [1]: 300 nM | inhibition in vivo at 200 µmol/kg [2]: 94%

CC(c1ccc(F)cc1)N(O)C(N)=O (stereo not drawn) [Example 109, N-Hydroxy-N-(1-(4-fluorophenyl)ethyl) urea]
IC50 [1]: 1800 nM | inhibition in vivo at 200 µmol/kg [2]: 98%

CC(c1cccs1)N(O)C(N)=O (stereo not drawn) [Example 47, N-hydroxy-N-(1-thien-2-yl)ethyl urea]
IC50 [1]: 3700 nM | inhibition in vivo at 200 µmol/kg [2]: 94%

NC(=O)N(O)Cc1ccsc1 [Example 44, N-Hydroxy-N-(thien-3-yl)methyl urea]
IC50 [1]: 4900 nM | inhibition in vivo at 200 µmol/kg [2]: 87%

CNC(=O)N(O)Cc1ccc(Br)cc1 [Example 101, N-Hydroxy-N-4-bromobenzyl-N'-methyl urea]
IC50 [1]: 300 nM | inhibition in vivo at 200 µmol/kg [2]: 93%

CC(c1ccc(Br)cc1)N(O)C(N)=O (stereo not drawn) [Example 97, N-Hydroxy-N-1-(4-bromophenyl)ethylurea]
IC50 [1]: 200 nM | inhibition in vivo at 200 µmol/kg [2]: 94%

NC(=O)N(O)Cc1ccc(-c2ccccn2)s1 [Example 55, N-hydroxy-N-(1-(5-(pyrid-2-yl)thien-2-yl)methyl) urea]
IC50 [1]: 2100 nM | inhibition in vivo at 200 µmol/kg [2]: 71%

Cc1cc(C(C)N(O)C(N)=O)c(C)s1 (stereo not drawn) [Example 42, N-Hydroxy-N-1-(2,5-dimethylthien-3-yl)ethyl urea]
IC50 [1]: 1500 nM | inhibition in vivo at 200 µmol/kg [2]: 64%

CC(c1ccc(-c2ccccc2)s1)N(O)C(N)=O (stereo not drawn) [Example 56, N-hydroxy-N-(1-(5-phenylthien-2-yl)ethyl)urea]
IC50 [1]: 400 nM | inhibition in vivo at 200 µmol/kg [2]: 89%

NC(=O)N(O)Cc1cccs1 [Example 45, N-hydroxy-N-(thien-2-yl)methyl urea]
IC50 [1]: 6800 nM | inhibition in vivo at 200 µmol/kg [2]: 97%

NC(=O)N(O)Cc1ccc(Br)cc1 [Example 100, N-Hydroxy-N-4-bromobenzylurea]
IC50 [1]: 800 nM | inhibition in vivo at 200 µmol/kg [2]: 95%

O=C(O)c1cc(/N=N/c2ccc(S(=O)(=O)Nc3ccccn3)cc2)ccc1O [sulfasalazine]
5-lipoxygenase inhibition [3]: weak 5-lipoxygenase inhibitor

Cc1ccc(C(C)N(O)C(N)=O)s1 (stereo not drawn) [Example 12, N-Hydroxy-N-1-(5-methylthien-2-yl)ethyl urea]
IC50 [1]: 530 nM | inhibition in vivo at 200 µmol/kg [2]: 94%

CC(c1ccc(C(F)(F)F)cc1)N(O)C(N)=O (stereo not drawn) [Example 111, N-Hydroxy-N-(1-(4-trifluoromethylphenyl)ethyl) urea]
inhibition in vivo at 200 µmol/kg [2]: 97%

CC(c1ccc(OCc2ccccc2)cc1)N(O)C(=O)NO (stereo not drawn) [Example 4]
IC50 [1]: 500 nM | inhibition in vivo at 200 µmol/kg [2]: 63%

CCC(c1ccc(Br)cc1)N(O)C(N)=O (stereo not drawn) [Example 102, N-Hydroxy-N-(1-(4-bromophenyl)propyl) urea]
inhibition in vivo at 200 µmol/kg [2]: 85%

NC(=O)N(O)Cc1ccc(OCc2ccccc2)cc1 [Example 5, N-hydroxy-N-(4-phenylmethoxyphenylmethyl) urea]
IC50 [1]: 610 nM | inhibition in vivo at 200 µmol/kg [2]: 74%

Cc1ccsc1CN(O)C(N)=O [Example 49, N-hydroxy-N-(3-methylthien-2-yl)methyl urea]
inhibition in vivo at 200 µmol/kg [2]: 94%

CC(c1ccc(Br)cc1)N(O)C(=O)NCCO (stereo not drawn) [Example 99, N-Hydroxy-N-1-(4-bromophenyl)ethyl-N'-(2-hydroxyethyl)-urea]
IC50 [1]: 300 nM | inhibition in vivo at 200 µmol/kg [2]: 84%

CC(c1ccc(Cl)cc1)N(O)C(N)=O (stereo not drawn) [Example 107, N-Hydroxy-N-(1-(4-chlorophenyl)ethyl) urea]
IC50 [1]: 600 nM | inhibition in vivo at 200 µmol/kg [2]: 99%

Cc1ccc(CN(O)C(N)=O)s1 [Example 51, N-hydroxy-N-(5-methylthien-2-yl)methyl urea]
IC50 [1]: 200 nM | inhibition in vivo at 200 µmol/kg [2]: 94%

CC(c1ccc2ccccc2c1)N(O)C(N)=O (stereo not drawn) [Example 9, N-hydroxy-N-(1-(2-naphthyl)ethyl) urea]
inhibition in vivo at 200 µmol/kg [2]: 69%

CC(c1ccsc1)N(O)C(N)=O (stereo not drawn) [Example 43, N-Hydroxy-N-1-(thien-3-yl)ethyl urea]
IC50 [1]: 3500 nM | inhibition in vivo at 200 µmol/kg [2]: 66%

NC(=O)N(O)CC=Cc1ccsc1 [Example 68, N-hydroxy-N-(3-(1-thien-3-yl)propenyl) urea]
IC50 [1]: 1900 nM | inhibition in vivo at 200 µmol/kg [2]: 93%

CC(c1ccc(-c2ccccc2)cc1)N(O)C(N)=O (stereo not drawn) [Example 120, N-Hydroxy-N-(1-(4-biphenyl)ethyl) urea]
inhibition in vivo at 200 µmol/kg [2]: 77%

CC(c1ccc(Br)s1)N(O)C(N)=O (stereo not drawn) [Example 133, N-hydroxy-N-[1-(5-bromothien-2-yl)ethyl]urea]
IC50 [1]: 900 nM

CCC(c1ccc(Br)cc1)N(O)C(=O)NC (stereo not drawn) [Example 103, N-Hydroxy-N-(1-(4-bromophenyl)propyl)-N'-methylurea]
inhibition in vivo at 200 µmol/kg [2]: 88%

CC(c1ccc(OCCc2ccccc2)cc1)N(O)C(N)=O (stereo not drawn) [Example 8, N-hydroxy-N-(1-(4-(2-phenyl)ethoxyphenyl)ethyl) urea]
IC50 [1]: 330 nM

COc1cc(C(C)N(O)C(N)=O)cc(OC)c1OCc1ccccc1 (stereo not drawn) [Example 7, N-hydroxy-N-(1-(4-phenylmethoxy-3,5-dimethoxyphenyl)ethyl) urea]
IC50 [1]: 1400 nM | inhibition in vivo at 200 µmol/kg [2]: 88%

CCOC(=O)CNC(=O)N(O)C(C)c1cc(C)sc1C (stereo not drawn) [Example 59]
IC50 [1]: 990 nM

CC(c1ccc(OCc2ccccc2)cc1)N(O)C(N)=O (stereo not drawn) [Example 1, N-hydroxy-N-(1(4-phenylmethoxyphenyl)ethyl)urea]
IC50 [1]: 430 nM | inhibition in vivo at 200 µmol/kg [2]: 58%

CNC(=O)N(O)Cc1cccs1 [Example 50, N-hydroxy-N-(thien-2-yl)methyl-N'-methyl urea]
IC50 [1]: 6700 nM | inhibition in vivo at 200 µmol/kg [2]: 90%

CNC(=O)N(O)C(C)c1ccc(Cl)c(C)c1 (stereo not drawn) [Example 124, N-Hydroxy-N-(1-(4-chloro-3-methylphenyl)ethyl)-N'-methyl urea]
IC50 [1]: 600 nM

NC(=O)N(O)Cc1ccc(Cl)s1 [Example 129, N-hydroxy-N-(5-chlorothien-2-yl)methyl urea]
IC50 [1]: 2000 nM

CCCCOc1cccc(C(C)N(O)C(N)=O)c1 (stereo not drawn) [Example 13, N-hydroxy-N-(1-(3-butoxyphenyl)ethyl) urea]
IC50 [1]: 2800 nM
